# Test results: patent publication US20170348258A1, “3-Amino Benzamide Derivative Serving As B-Lactam Auxiliary Antibiotic, Preparation Method and Use Thereof” (THE HONG KONG POLYTECHNIC UNIVERSITY, priority 2014, published 2017)
# Assays:
# Assay in all cases: FICI of F332 with antibiotics
# Format in all cases: cell-based, S. aureus
# [1] = test system: MRSA strain 3411
# [2] = test system: MRSA strain 2895
# [3] = test system: MRSA strain 1402
# [4] = test system: MRSA strain #1717 (ATCC strain)
# [5] = test system: MRSA strain 358
# [6] = test system: MRSA strain 3580
# [7] = test system: MRSA strain 85
compound,measurement,setting,value
"CCCCCCCCCNc1ccc(F)c(C(N)=O)c1F [Compound F332, 2,6-difluoro-3-(nonylamino)benzamide]",FICI of F332 combined with Amoxicillin,[1],2.02
same,FICI of F332 combined with Cefuroxime,[1],1.00
same,FICI of F332 combined with Cloxacillin,[1],0.53
same,FICI of F332 combined with Meropenem,[1],3.00
same,FICI of F332 combined with Meticillin,[1],1.02
same,FICI of F332 combined with Amoxicillin,[2],1.06
same,FICI of F332 combined with Cefuroxime,[2],0.31
same,FICI of F332 combined with Cloxacillin,[2],0.38
same,FICI of F332 combined with Meropenem,[2],2.13
same,FICI of F332 combined with Meticillin,[2],0.31
same,FICI of F332 combined with Amoxicillin,[3],1.02
same,FICI of F332 combined with Cefuroxime,[3],0.63
same,FICI of F332 combined with Cloxacillin,[3],0.75
same,FICI of F332 combined with Meropenem,[3],5.00
same,FICI of F332 combined with Meticillin,[3],0.56
same,FICI of F332 combined with Amoxicillin,[4],1.06
same,FICI of F332 combined with Cefuroxime,[4],1.13
same,FICI of F332 combined with Cloxacillin,[4],2.50
same,FICI of F332 combined with Meropenem,[4],3.00
same,FICI of F332 combined with Meticillin,[4],1.13
same,FICI of F332 combined with Amoxicillin,[5],0.27
same,FICI of F332 combined with Cefuroxime,[5],1.13
same,FICI of F332 combined with Cloxacillin,[5],1.06
same,FICI of F332 combined with Meropenem,[5],129.0
same,FICI of F332 combined with Meticillin,[5],0.25
same,FICI of F332 combined with Amoxicillin,[6],0.28
same,FICI of F332 combined with Cefuroxime,[6],0.06
same,FICI of F332 combined with Cloxacillin,[6],0.53
same,FICI of F332 combined with Meropenem,[6],1.25
same,FICI of F332 combined with Meticillin,[6],0.19
same,FICI of F332 combined with Amoxicillin,[7],0.04
same,FICI of F332 combined with Cefuroxime,[7],0.25
same,FICI of F332 combined with Cloxacillin,[7],1.00
same,FICI of F332 combined with Meropenem,[7],4.01
same,FICI of F332 combined with Meticillin,[7],0.50
